# Reference: paper PMC5320730, “Synthetic curcumin derivative DK1 possessed G2/M arrest and induced apoptosis through accumulation of intracellular ROS in MCF-7 breast cancer cells” (Cancer Cell International, 2017)
# Columns and labels:
# [1] = system: cytochrome c in MCF-7 cells; assay: Cytochrome c ELISA; assay type: cell-based, human; settings: MCF-7, 25 µM
# Procedure: (§1) The level of active caspase 9 and cytochrome c of the control and DK1 treated MCF-7 were quantified using CaspGLOW Red Active Caspase-9 staining kit (BioVision, USA) and human cytochrome c platinum ELISA (eBioscience Affymetrix, USA), respectively according to manufacturers’ protocol. Fold change of caspase 9 and cytochrome c was calculated by dividing fluorescence intensity or absorbance of DK1 treated MCF-7 with untreated control MCF-7.
# p53 in MCF-7 cells = assay: Western blot analysis of p53; assay type: cell-based, human; settings: MCF-7, 25 µM, western blot
# Procedure: Total protein was extracted from harvested cell with Radioimmunoprecipitation assay (RIPA) buffer supplemented with phosphatase inhibitor cocktail (Roche, Canada) and the concentration was quantified by Bradford assay (Sigma, USA). Then, 100 μg of extracted protein was subjected to sodium dodecyl sulfate polyacrylamide gel electrophoresis (SDS-PAGE) (Bio-Rad, USA), transferred to nitrocellulose membrane, block with 0.5% skimmed milk overnight, washed with Tris-buffered saline tween (TBST) buffer and incubated with primary antibodies (anti-CDC2, anti-pCDC2 (Tyr15), anti-p53, and anti-β-actin at a dilution of 1:1000 (Abcam, USA) for 1 h. After that, membranes were washed, incubated with 1:5000 diluted goat anti-rabbit IgG H&L conjugated to […] (Abcam, USA) and developed under chemiluminescence condition (Super Signal West Pico, Pierce, USA) using the ChemiDoc XRS (Bio-Rad, USA). Differential level of evaluated protein in control and DK1 treated MCF-7 was calculated based on the bands intensity analyzed using the Quantity One 1D Analysis software (Bio-rad, USA).
# MCF-7 cells [2] = assay: MTT cell viability assay, MCF-7; assay type: cell-based, human; settings: for IC50: Homo sapiens, MCF7, MCF-7, MTT
# Procedure: (§2) Promyelocytic leukemia HL60, hepatoblastoma HepG2, breast cancer MCF-7 and MDA-MB-231 cells were purchased from ATCC (USA) and cultured in RPMI-1640 media (Sigma, USA), supplemented with 10% fetal bovine serum (FBS) (PAA, USA). Normal epithelial MCF-10A cells (ATCC, USA) was maintain in DMEM-F12 (Sigma, USA) supplemented with hydrocortisone (0.5 μg/mL), insulin (10 μg/mL), human epidermal growth factor (hEGF) (20 ng/mL) (Sigma, USA) and 10% FBS (PAA, USA).
# (§3) MTT cell viability assay was used to evaluate the effect of DK1 on viability of HL-60, HepG2, MCF-7, MDA-MB-231 and MCF-10A cells. Briefly, each type of cells (8 × 10^4cells/well) was seeded in 96-well plate in 37 °C CO2 incubator overnight. Then, DK1 was added at concentration ranging between 200 and 3.125 µM by twofold serial dilution. Untreated control was prepared simultaneously. After that, the cells were incubated for 24, 48 and 72 h at 37 °C in 5% CO2 incubator. After the incubation period, all well was added with 20 μL of MTT solution (5 mg/mL) and further incubated for 3 h. Subsequently, 170 μL of supernatant from each well was discarded, 100 μL of dimethyl sulfoxide (DMSO) was added to solubilize the purple formazan crystal and the absorbance was measured at a wavelength of 570 nm by Enzyme-linked immunosorbent assay (ELISA) plate reader (Bio-tek instruments, USA). All cell lines were assayed for three biological replicates each with triplicates. Percentage of cell viability was calculated using the following formula: Cell viability%=OD sample/OD control×100%
# (§4) IC50 value (concentration of DK1 that reduce 50% of cell viability compared to control cell) was determined from the graph of cell viability (%) vs DK1 concentration. Subsequently, selective index, which indicating selectivity of DK1 against cancerous and normal breast cell lines, was calculated by: Selective indexSI=IC50of DK1on normal MCF-10A cell line/IC50on breast cancerous cell lineHL60/HepG2/MCF-7/MDA-MB-231
# MCF-7 cells [3] = assay: Fluorescent microscopy with acridine orange/propidium iodide staining, count of 200 cells; assay type: cell-based, human; settings: MCF-7, 25 µM, 72 h, AO/PI, scoring of 200 cells
# Procedure: Prior to harvest the cell, morphology of control and DK1 treated MCF-7 was observed using light microscope. In addition, harvested control and treated MCF-7 cells were resuspended in 100 μL of Phosphate buffer saline (PBS), stained with 10 μg/mL of Acridine orange (AO) and propidium iodide (PI) and viewed under fluorescent microscope (Nikon, Japan).
# [4] = system: active caspase 9 in MCF-7 cells; assay: Active caspase 9 staining (CaspGLOW), fluorometry; assay type: cell-based, human; settings: MCF-7, 25 µM
# Procedure: as §1
# HepG2 cells = assay: MTT cell viability assay, HepG2; assay type: cell-based; settings: Homo sapiens
# Procedure: as §2, §3, §4
# MCF-7 cells [5] = assay: Flow cytometry cell cycle analysis (PI); assay type: cell-based, human; settings: MCF-7, 25 µM
# Procedure: Cell cycle progression of control and DK1 treated MCF-7 was analysed using BD FACS Calibur flow cytometer (Becton–Dickinson, USA). Briefly, harvested cells were added with 250 μL of trypsin buffer with 10 min incubation, followed by 200 μL of trypsin inhibitor with RNase buffer with 10 min incubation, and finally stained with 200 μL of propidium iodide (PI) from BD Cycletest Plus kit (Becton–Dickinson, USA). All stained cells were subjected to BD FACS Calibur flow cytometer analysis using BD Cell Quest Pro software (Becton–Dickinson, USA).
smiles,measurement,setting,value
"O=C(/C=C(\O)c1ccccc1)c1ccccc1O [DK1, (Z)-3-hydroxy-1-(2-hydroxyphenyl)-3-phenylprop-2-en-1-one]",promotion of cytochrome c compared to control,[1]; 48 h,~ 2.1 fold
same,promotion of cytochrome c compared to control,[1]; 72 h,~ 2.8 fold
same,promotion of p53 protein compared to control,p53 in MCF-7 cells; 48 h,~ 1.6 fold
same,promotion of p53 protein compared to control,p53 in MCF-7 cells; 72 h,~ 2.0 fold
same,IC50,MCF-7 cells [2]; 24 h,96.8 ± 4.87 µM
same,IC50,MCF-7 cells [2]; 48 h,33.3 ± 3.5 µM
same,IC50,MCF-7 cells [2]; 72 h,25 ± 3.71 µM
same,Selective index of MCF-10A/MCF-7,"MCF-7 cells [2]; IC50 MCF-10A / IC50 MCF-7, 24 h",>2.17
same,Selective index of MCF-10A/MCF-7,"MCF-7 cells [2]; IC50 MCF-10A / IC50 MCF-7, 48 h",3.75
same,Selective index of MCF-10A/MCF-7,"MCF-7 cells [2]; IC50 MCF-10A / IC50 MCF-7, 72 h",4.17
same,SI values,"MCF-7 cells [2]; MCF-7, overall statement",higher than 2
same,cells undergone apoptosis,MCF-7 cells [3],~ 12.5%
same,cells undergone late apoptosis/necrosis,MCF-7 cells [3],~ 31%
same,promotion of active caspase 9 compared to control,[4]; 48 h,~ 1.9 fold
same,promotion of active caspase 9 compared to control,[4]; 72 h,~ 2.4 fold
same,IC50,HepG2 cells; 24 h,> 150 µM
same,IC50,HepG2 cells; 48 h,138 ± 4.13 µM
same,IC50,HepG2 cells; 72 h,64.2 ± 3.12 µM
same,percentage of cell population in G2/M phase,MCF-7 cells [5]; 24 h (control ~18%),~ 25%
same,percentage of cell population in G2/M phase,MCF-7 cells [5]; 48 h (control ~18%),~ 26%
same,percentage of cell population in G2/M phase,MCF-7 cells [5]; 72 h (control ~18%),~ 31%
